Data on 1 compound can be found in US12350269B2 (Alexion Pharmaceuticals, Inc., priority 2015, dated 2025).

Some test systems named below: DHL5; U2932; TOLEDO; LY18; LY1; DB; DHL10; DLCL2; LY7; DHL6; LY10; DHL8; VAL; RCK8.
Test in all cases: DLBCL cell line viability, CellTiter Glo
Common to all, as to assay type: cell-based
Conditions in all cases: read-out: IC50 of Kinase Inhibitor in CellTiter Glo Assay

Experimental for DB: (§1) Each IC50 value is an average of at least four replicate experiments. Subsequent analysis using a FACS based caspase 3 cleavage detection kit (BD Biosciences) and Edu incorporation were performed.
Experimental for DHL10: as §1
Experimental for DHL5: as §1
Experimental for DHL6: as §1
Experimental for DHL8: as §1
Experimental for DLCL2: as §1
Experimental for LY10: as §1
Experimental for LY18: as §1
Experimental for LY7: as §1
Experimental for RCK8: as §1
Experimental for TOLEDO: as §1
Experimental for U2932: as §1
Experimental for VAL: as §1

As for `CC(C)(C)c1nc2c3cc[nH]c(=O)c3c3cc(F)ccc3c2[nH]1` [Pan-Jak], the 50% inhibitory concentration (IC50) with DHL5 turned out to be 39 µM; with U2932 it was 3.9 µM; in the assay on TOLEDO it was 5.9 µM; with LY18, 0.8 µM; in the assay with LY1, 0.7 µM; in the assay on DB, 21.4 µM. In addition, the IC50 in the assay on DHL10 stood at 40 µM; in the assay with DLCL2 it was 42 µM; with LY7, 34 µM; in the assay on DHL6 it was 2.63 µM; with LY10, 5.1 µM; in the assay with DHL8 it was 28 µM. The IC50 in the assay with VAL was determined as 5.2 µM; in the assay on RCK8, 43 µM.

What is called IC50 is the concentration that gives 50% inhibition.
